According to patent USRE37781E1, “Substituted cyclic carbonyls and derivatives thereof useful as retroviral protease inhibitors” (DuPont Pharmaceuticals Company, priority 1991, dated 2002):
≈ marks a conversion by molar mass, not a printed value. Like-named read-outs stand apart in the source and are kept apart here.

Experiments:
[1] = target: single-chain tethered dimer of HIV protease (Human immunodeficiency virus 1, UniProt P04585); experiment: biochemical; assay type: biochemical; design: fused on or other part: A second copy of the same protease unit is joined to the first by a short peptide tether, giving one polypeptide
Method: HIV Protease Inhibition Assay—HPLC Method
Active protease was prepared as described therein by extraction with 67% acetic acid, dilution 33-fold with water, dialysis against water and then against a “refolding buffer” consisting of 20 mM MES, 1 mM dithiothreitol and 10% glycerol. Protease was stored as a stock preparation at 10 uM in refolding buffer.
Substrate: Peptide of sequence: aminobenzoyl-Ala-Thr-His-Gln-Val-Tyr-Phe(NO2)-Val-Arg-Lys-Ala containing p-nitrophenylalanine, was prepared by solid phase synthesis as previously described Cheng et al., op.cit. Stock solutions of 2 mM substrate were prepared in DMSO.
Inhibitory compounds were dissolved in sufficient DMSO to make 3 mM stock solutions. All further dilutions were prepared in “assay buffer”: 1M NaCl, 50 mM MES, pH 5.5, 1 mM EDTA, 1 mM DTT, […] glycerol.
Enzyme reaction: In a 2 ml screw-cap centrifuge tube were added 50 ul protease (final concentration 0.25 nM) and 0.1 ml inhibitory compound (final concentration […]). After 15 min preincubation at room temperature, the reaction was started with the addition of 0.05 ml substrate (final concentration 5 uM). Incubation was carried out at 30 C. for 1 hr. The reaction was stopped with 1 ml 0.1M ammonium hydroxide.
HPLC measurement of product formation: The product (aminobenzoyl-Ala-Thr-His-Gln-Val-Tyr) was separated from substrate on a Pharmacia MonoQ anion exchange column. The injection volume was 0.2 ml. The mobile phases were: A (20 mM trisHCl, pH 9.0, 0.02% sodium Azide, 10% acetonitrile), B (20 mM tris HCl, pH 9.0, 0.02% sodium azide, 0.5M ammonium formate, 10% acetonitrile). The mobile phases were pumped at 1 ml/min, with a gradient from 0 to 30% B in 5 min, 100% B for 4 min to wash the column, and a re-equilibration for 4 min. The retention time of the product was 3.6 min. Detection with a Shimadzu model RF535 fluorescence monitor was at 330 nm (excitation) and 430 (emission).

HIV-1 (RF) in MT-2 cells = experiment: microbe, parasite or virus in culture; assay type: cell-based
Method: DNA Plasmids and in vitro RNA transcripts:
Plasmid pDAB 72 containing both gag and pol sequences of BH10 (bp 113-1816) cloned into PTZ 19R was prepared according to Erickson-Viitanen et al. AIDS Research and Human Retroviruses 1989, 5, 577. The plasmid was linearized with Bam HI prior to the generation of in vitro RNA transcripts using the Riboprobe Gemini system II kit (Promega) with T7 RNA polymerase. Synthesized RNA was purified by treatment with RNase free DNAse (Promega), phenol-chloroform extraction, and ethanol precipitation. RNA transcripts were dissolved in water, and stored at −70° C. The concentration of RNA was determined from the A260.
Biotinylated capture probes were purified by HPLC after synthesis on an Applied Biosystems (Foster City, Calif.) DNA synthesizer by addition of biotin to the 5′ terminal end of the oligonucleotide, using the biotin-phosphoramidite reagent of Cocuzza, Tet. Lett. 1989, 30, 6287. The gag biotinylated capture probe (5-biotin-[…] 3′) was complementary to nucleotides 889-912 of HXB2 and the pol biotinylated capture probe (5′-biotin-[…] 3′) was complementary to nucleotides 2374-2395 of HXB2. Alkaline phosphatase conjugated oligonucleotides used as reporter probes were prepared by Syngene (San Diego, Calif.). The pol reporter probe (5′ […] 3′) was complementary to nucleotides 2403-2425 of HXB2. The gag reporter probe (5′ […] 3′) was complementary to nucleotides 950-973 of HXB2. All nucleotide positions are those of the GenBank Genetic Sequence Data Bank as accessed through the Genetics Computer Group Sequence Analysis Software Package (Devereau Nucleic Acids Research 1984, 12, 387). The reporter probes were prepared as 0.5μM stocks in 2× SSC (0.3M NaCl, 0.03M sodium citrate), 0.05M Tris pH 8.8, 1 mg/mL BSA. The biotinylated capture probes were prepared as 10 μM stocks in water.
Streptavidin coated plates:
Nunc-immunomodule microtiter plate strips were coated by addition of 200 μL of streptavidin (30 ug/mL, Scripps, La Jolla, Calif.) in freshly prepared 10 mM sodium carbonate (pH 9.6). Plates were incubated overnight at 4° C. Streptavidin solution was aspirated from the wells and a blocking buffer composed of phosphate buffered saline (PBS), 20 mg/mL bovine serum albumin (crystalline, nuclease and protease free, Calbiochem) and 100 mg/mL lactose (Sigma) was added to the plates for 3 hrs at room temperature. Blocking buffer was removed from the wells, which were allowed to dry overnight at room temperature and subsequently stored at 4° C. in zip lock bags with desiccant. For the majority of the compound evaluation experiments, streptavidin coated plates were obtained from Du Pont Biotechnology Systems (Boston, Mass.).
MT-2, CEM, and H9 cells were maintained in RPMI 1640 supplemented with 5% fetal calf serum (FCS), 2 mM L-glutamine and 50 μg/mL gentamycin, all from Gibco. Laboratory strains of HIV-1 (RF, MN and IIIB) were propagated in H9 cells in the same medium. Virus stocks were prepared approximately 1 month after acute infection of H9 cells by clarification of the tissue culture medium and storage of aliquots at −70° C. […] Each aliquot of virus stock used for infection was thawed only once. In some cases, infected H9 cells were shifted to Dulbecco's modified Eagle's medium 3-10 days before collection of virus in order to generate virus stocks in medium with low biotin content. Clinical isolates of HIV that had been passaged once in MT-2 cells were used to infect fresh MT-2 cells in RPMI medium. Three days after infection, cells were pelleted, resuspended and culture continued in Dulbecco's modified Eagle's medium as above. Virus stocks of clinical isolates were prepaid 10-15 days after infection when cytopathic effects were apparent in the culture.

[2] = Table 2d, HIV protease inhibition, HPLC method, read-out: HPLC K1
[3] = HIV protease inhibition, HPLC method, Table 2d, read-out: HPLC K1
[4] = read-out: HPLC K1, HIV protease inhibition, HPLC method, Table 2d
[5] = Table 2d, class symbols, read-out: HPLC K1
[6] = Human immunodeficiency virus 1, MT2, HIV RNA assay, HIV-1 infected MT-2 cells, class symbols, read-out: IC90
[7] = Human immunodeficiency virus 1, MT2, 24 h, Table 1d, upper part, read-out: IC90
[8] = Human immunodeficiency virus 1, MT2, Table 1e, read-out: IC90

CN1CCN(CCCN2C(=O)NC(Cc3ccccc3)C(O)C(O)C2Cc2ccccc2)CC1 (centres unmarked) [15AP]
Ki [1, 2]: > 1000 nM

O=C1N(Cc2cccc(-c3nc4ccccc4[nH]3)c2)C(Cc2ccccc2)C(O)C(O)C(Cc2ccccc2)N1Cc1cccc(-c2nc3ccccc3[nH]2)c1 (centres unmarked) [15AX]
Ki [1, 2]: 10 to 1000 nM

Nc1ncc(-c2cccc(CN3C(=O)N(Cc4cccc(-c5ccnc(N)n5)c4)C(Cc4ccccc4)C(O)C(O)C3Cc3ccccc3)c2)cn1 (centres unmarked) [15BB]
Ki [1, 2]: 10 to 1000 nM

O=C1N(Cc2ccc3nnn(O)c3c2)C(Cc2ccccc2)C(O)C(O)C(Cc2ccccc2)N1Cc1ccc2nnn(O)c2c1 (centres unmarked) [15CU]
Ki [1, 2]: 10 to 1000 nM

CNc1noc2ccc(CN3C(=O)N(Cc4ccc5onc(NC)c5c4)C(Cc4ccccc4)C(O)C(O)C3Cc3ccccc3)cc12 (centres unmarked) [15DK]
Ki [1, 2]: < 10 nM

O=C1NC(Cc2ccccc2)C(O)C(O)C(Cc2ccccc2)N1Cc1ccc2[nH]nnc2c1 (centres unmarked) [15DM]
Ki [1, 2]: < 10 nM

O=C1N(Cc2cccc(I)c2)C(Cc2ccccc2)C(O)C(O)C(Cc2ccccc2)N1Cc1ccc2[nH]nnc2c1 (centres unmarked) [15DT]
IC90 (HIV-1 (RF) in MT-2 cells; Table 2d, HIV RNA assay): +++ (+++=<10 μg/mL)

CC(CCCN1C(=O)N(CCCC(C)n2ccnc2)[C@H](Cc2ccccc2)[C@H](O)[C@@H](O)[C@H]1Cc1ccccc1)n1ccnc1 (some centres unmarked) [15FK]
Ki [1, 3]: > 1000 nM

O=C1N(CCCCCn2cccn2)C(Cc2ccccc2)C(O)C(O)C(Cc2ccccc2)N1CCCCCn1cccn1 (centres unmarked) [15FL]
Ki [1, 4]: > 1000 nM

O=C1N(CCCCCN2CCOCC2)C(Cc2ccccc2)C(O)C(O)C(Cc2ccccc2)N1CCCCCN1CCOCC1 (centres unmarked) [15FM]
Ki [1, 4]: > 1000 nM

O=C1N(Cc2ccc(CO)o2)C(Cc2ccccc2)C(O)C(O)C(Cc2ccccc2)N1Cc1ccc(CO)o1 (centres unmarked) [15FY]
Ki [1, 3]: 10 to 1000 nM

O=C(NC(Cc1ccccc1)C(=O)Nc1cccc(CN2C(=O)N(Cc3cccc(NC(=O)C(Cc4ccccc4)NC(=O)OCc4ccccc4)c3)C(Cc3ccccc3)C(O)C(O)C2Cc2ccccc2)c1)OCc1ccccc1 (centres unmarked) [15T]
Ki [1, 5]: < 10 nM

CC(N)C(=O)Nc1cccc(CN2C(=O)N(Cc3cccc(NC(=O)C(C)N)c3)C(Cc3ccccc3)C(O)C(O)C2Cc2ccccc2)c1 (centres unmarked) [15U]
Ki [1, 5]: < 10 nM

NC(Cc1ccccc1)C(=O)Nc1cccc(CN2C(=O)N(Cc3cccc(NC(=O)C(N)Cc4ccccc4)c3)C(Cc3ccccc3)C(O)C(O)C2Cc2ccccc2)c1 (centres unmarked) [15V]
Ki [1, 5]: < 10 nM

CN(C)CCNC(=O)c1cccc(CN2C(=O)N(Cc3cccc(C(=O)NCCN(C)C)c3)C(Cc3ccccc3)C(O)C(O)C2Cc2ccccc2)c1 (centres unmarked) [15XV]
Ki [1, 2]: < 10 nM

CN(C)CCNC(=O)c1cccc(CN2C(=O)N(Cc3cccc(C(=O)NCCN(C)C)c3)C(Cc3ccccc3)C(O)C(O)C2Cc2ccccc2)c1 (centres unmarked) [15XW]
IC90 (HIV-1 (RF) in MT-2 cells; Table 2d, HIV RNA assay): ++ (++=10 to 100 μg/mL)

O=C(NCc1cccnc1)c1cccc(CN2C(=O)N(CC3CC3)C(Cc3ccccc3)C(O)C(O)C2Cc2ccccc2)c1 (centres unmarked) [15YD]
Ki [1, 2]: < 10 nM

CSCCC1C(O)C(O)C(CCSC)N(Cc2ccc(CO)cc2)C(=O)N1Cc1ccc(CO)cc1 (centres unmarked) [16AF]
Ki ([1]; Table 2e, read-out: K4 HPLC): > 1000 nM

O=C1N(Cc2ccccc2)C(Cc2ccc3ccccc3c2)C(O)C(O)C(Cc2ccc3ccccc3c2)N1Cc1ccccc1 (centres unmarked) [16K]
Ki ([1]; Table 2e, read-out: K4 HPLC): < 10 nM

O=C1N(Cc2ccc3ccccc3n2)C(Cc2ccccc2)C(O)C(O)C(Cc2ccccc2)N1Cc1ccc2ccccc2n1 (centres unmarked) [Example 6K]
IC90 (HIV-1 (RF) in MT-2 cells; [6]): > 100 µg/mL

O=C1N(Cc2ccc(C(F)(F)F)cc2)C(Cc2ccccc2)C(O)C(O)C(Cc2ccccc2)N1Cc1ccc(C(F)(F)F)cc1 (centres unmarked) [Example 6W]
IC90 (HIV-1 (RF) in MT-2 cells; [6]): > 100 µg/mL

O=C1N(Cc2cccc(C(F)(F)F)c2)C(Cc2ccccc2)C(O)C(O)C(Cc2ccccc2)N1Cc1cccc(C(F)(F)F)c1 (centres unmarked) [Example 6Y]
IC90 (HIV-1 (RF) in MT-2 cells; [6]): > 100 µg/mL

C=CCN1C(=O)N(CC=C)C(Cc2ccccc2)C2OCSCOC2C1Cc1ccccc1 (centres unmarked) [Example 7B]
IC90 (HIV-1 (RF) in MT-2 cells; [7]): 10 to 100 µg/mL (≈ 21.5 to 215 µM)

O=C1N(CC2CC2)C(Cc2ccccc2)C2OCOC2C(Cc2ccccc2)N1CC1CC1 (centres unmarked) [Example 7H]
IC90 (HIV-1 (RF) in MT-2 cells; [7]): 10 to 100 µg/mL (≈ 22.4 to 224 µM)

O=C1N(Cc2ccc3ccccc3c2)C(Cc2ccccc2)C2OCOC2C(Cc2ccccc2)N1Cc1ccc2ccccc2c1 (centres unmarked) [Example 7Q]
IC90 (HIV-1 (RF) in MT-2 cells; [7]): 10 to 100 µg/mL (≈ 16.2 to 162 µM)

O=C1N(Cc2ccc3ccccc3c2)C(C(F)Cc2ccccc2)[C@@H](O)[C@@H](Cc2ccccc2)N1Cc1ccc2ccccc2c1 (some centres unmarked) [Example 7X]
IC90 (HIV-1 (RF) in MT-2 cells; [8]): > 100 µg/mL

NC(=NO)c1cccc(CN2C(=O)N(Cc3cccc(C(N)=NO)c3)C(Cc3ccccc3)C(O)C2CCc2ccccc2)c1 (centres unmarked) [Example 8AF]
IC90 (HIV-1 (RF) in MT-2 cells; Table 1e): +++ (+++=<10 μg/mL)

NC(=NO)c1cccc(CN2C(=O)N(Cc3cccc(C(N)=NO)c3)C(Cc3ccccc3)C(O)C2CCc2ccccc2)c1 (centres unmarked) [Example 8AO]
IC90 (HIV-1 (RF) in MT-2 cells; Table 1e): + (+=>100 μg/mL)

COC(=O)c1cccc(CN2C(=O)N(Cc3cccc(C(=O)OC)c3)C(Cc3ccccc3)C(O)C2CCc2ccccc2)c1 (centres unmarked) [Example 8AQ]
IC90 (HIV-1 (RF) in MT-2 cells; [8]): > 100 µg/mL

O=C1N(Cc2ccc3ccccc3c2)C(CCc2ccccc2)[C@@H](O)[C@@H](Cc2ccccc2)N1Cc1ccc2ccccc2c1 (some centres unmarked) [Example 8G]
IC90 (HIV-1 (RF) in MT-2 cells; [8]): > 50 µg/mL

O=C1N(Cc2ccc3ccccc3c2)C(Cc2ccccc2)C(O)C(C(Br)Cc2ccccc2)N1Cc1ccc2ccccc2c1 (centres unmarked) [Example 8R]
IC90 (HIV-1 (RF) in MT-2 cells; [8]): > 50 µg/mL

COC(=O)c1cccc(CN2C(=O)N(Cc3cccc(C(=O)OC)c3)[C@H](Cc3ccccc3)[C@H](O)[C@H]2CCc2ccccc2)c1 [Example 8Y]
IC90 (HIV-1 (RF) in MT-2 cells; [8]): 10 to 100 µg/mL (≈ 16.5 to 165 µM)

CNC(=O)OCCCCCCN1C(=O)N(CCCCCCOC(C)=O)C(Cc2ccccc2)C(O)C(O)C1Cc1ccccc1 (centres unmarked) [Example 12X]
IC90 (HIV-1 (RF) in MT-2 cells; Human immunodeficiency virus 1, MT2, 48 h, Table 2d, class symbols, read-out: IC90): < 10 µg/mL

CC(=NO)c1cccc(CN2C(=O)N(Cc3cccc(C(C)=NO)c3)C(Cc3ccccc3)C(O)C(O)C2Cc2ccccc2)c1 (centres unmarked) [Example 15XS]
IC90 (HIV-1 (RF) in MT-2 cells; Human immunodeficiency virus 1, MT2, 48 h, Table 2d, HIV RNA assay, read-out: IC90): < 10 µg/mL

Nc1ccn([C@H]2CC[C@@H](CO)O2)c(=O)n1 [dideoxycytidine, reference compound]
IC90 (HIV-1 (RF) in MT-2 cells; Human immunodeficiency virus 1, MT2, virus inoculum standardisation, HIV-1 (RF), MT-2 cells, read-out: IC50 value (concentration of compound required to reduce the HIV RNA level by 90%)): 0.2 µg/mL (≈ 0.947 µM)
